# From patent publication US20190358181A1, “METHODS FOR AUTISM SPECTRUM DISORDER PHARMACOTHERAPY” (priority 2017, published 2019)
# Legend:
# Type in all cases: in vivo, human
# males with ASD [1] = test: ADOS-2 (Autism Diagnostic Observation Schedule, 2nd edition), SAT-1 trial, single 20 mg/kg IV suramin infusion; settings: for Difference from baseline (mean ± sd) / d (Cohen's d): 45 days after treatment
# Procedure: (§1) Two observational examinations were performed by a clinician at 3 time points: baseline (56±8 days; mean±SEM; before the infusion), 2-days post-infusion, and 6-weeks post-infusion. The two examiner-based metrics were the Autism Diagnostic Observation Schedule, 2nd edition (ADOS-2) with video and audio files recorded on 3 cameras, and the Expressive One Word Picture Vocabulary Testing (EOWPVT). Both of these observational metrics were administered by a trained and certified examiner using approved test materials. Three standardized questionnaires were completed by parents at 3 time points: baseline, 7-days post-infusion, and 6-weeks post-infusion. The three standardized questionnaires completed by parents were the 58-question Aberrant Behavior Checklist (ABC), the 75-item Autism Treatment Evaluation Checklist (ATEC), and the 33-item repetitive behavior questionnaire (RBQ). Parents were asked to complete these three instruments with reference to how their child behaved in the previous 7 days. At the end of the six weeks, we included a 24-question Clinical Global Impression (CGI) questionnaire (FIG. 16). In addition, parents were asked to list the 3 top behaviors or symptoms that they observed to be most changed over the previous 6-weeks. To minimize the misinterpretation of natural day-to-day variations in symptoms, parents were asked to mark a symptom as changed in the 6-week CGI only if it had lasted for at least 1 week.
# All children met DSM-5 diagnostic criteria for autism spectrum disorders, and received confirmatory testing by Autism Diagnostic Observation Schedule, 2nd edition (ADOS-2) examination. Inclusion criteria included males, ages 4-17 years, living in the San Diego, Calif. region, with a confirmed diagnosis of ASD.
# (§2) For the test dose, 50 mg of suramin hexasodium (Bayer Pharmaceuticals, Inc.) in 5 mL of saline (experimental arm, 5 patients), or 5 mL of saline only (control arm, 5 patients) were given by slow intravenous (IV) push over 3 minutes, followed by a 10 mL flush of saline. One hour after the test dose, vital signs were repeated and a single infusion of either suramin (20 mg/kg, minus the 50 mg test dose, in 50 mL, up to a maximum of 1 gram) or saline (50 mL IV) was given over 30 minutes, followed by a 10 mL flush of saline.
# (§3) Behavioral and neurological effects of treatment were assessed primarily by the examiner-based ADOS-2 protocol scores and standardized vocabulary testing (Expressive One Word Picture Vocabulary Test, EOWPVT), with secondary evaluation via parent-based assessments (Aberrant Behavior Checklist (ABC) scores, Autism Treatment Evaluation Checklist (ATEC) scores, Clinical Global Impression of Improvement (CGI) scores, and Repetitive Behavior Questionnaire (RBQ) scores). See General Methods for information related to behavioral test administration. Prior to the study, diagnosis of each of the enrolled participants was confirmed by ADOS-2 comparison scores of ≥7, and non-verbal IQ was tested by Leiter-3 examination. Examiner-based outcomes (ADOS and EOWPVT) were assessed at 2-days and 6-weeks after the infusion. Parent-based outcomes (ABC, ATEC, CGI, and RBQ) were assessed at 7-days and 6-weeks after the infusion. To minimize the effects of natural behavioral variability, the parents were instructed to mark a behavior as changed only if it was persistently changed for at least 1 week.
# Each child was used as their own control to examine before and after treatment effects from Example 1 in a paired t-test design for the analysis of the ADOS, EOWPVT, ABC, ATEC, RBQ (FIGS. 4-11 show individual analyses), and blood and urine safety data (FIGS. 2 and 3 show individual analyses). Paired, non-parametric analysis was by Wilcoxon signed-rank sum test. Categorical data, such as the presence or absence of adverse events or historical symptoms was analyzed by Fisher's exact test. […]
# males with ASD [2] = test: Autism Treatment Evaluation Checklist (ATEC), parent questionnaire, SAT-1 trial
# Procedure: as §1, §2, §3
# (§4) Each child was used as their own control to examine before and after treatment effects from Example 1 in a paired t-test design for the analysis of the ADOS, EOWPVT, ABC, ATEC, RBQ (FIGS. 4-11 show individual analyses), and blood and urine safety data (FIGS. 2 and 3 show individual analyses). Paired, non-parametric analysis was by Wilcoxon signed-rank sum test. Categorical data, such as the presence or absence of adverse events or historical symptoms was analyzed by Fisher's exact test. Two-way ANOVA (treatment×time), with Sidak post hoc correction, was used to analyze the 6-week summaries captured by the ADOS, CGI, and additional blood and urine safety analysis. Cohen's d—calculated as the mean difference of the paired, within-subject scores before and after treatment, divided by the standard deviation of the differences—was used as an estimate of effect size.
# [3] = Toxicity and safety monitoring, adverse events graded by CTCAE v4.03, SAT-1 trial
# Procedure: Immediately before the infusion, height and weight were recorded, vital signs and capillary oxygen saturation (pulse oximetry) measured, physical and neurological examinations were conducted, and urine and blood for safety monitoring, pharmacology, and metabolomics was collected.
# as §2
# Suramin pharmacokinetics was assessed by serum isolation at the 4 time points immediately before and after the infusion. […] Unexpected and adverse events were recorded as they occurred and graded in severity according to the National Cancer Institute Common Terminology Criteria for Adverse Events v4.03 (CTCAE) scale. Additional pharmacovigilence monitoring included daily scripted phone calls in the first week, then 4 weekly calls until the exit examinations at 6 weeks.
# as §4, with “Paired,” for “Each child was used as their own control to examine before and after treatment effects from Example 1 in a paired t-test design for the analysis of the ADOS, EOWPVT, ABC, ATEC, RBQ (FIGS. 4-11 show individual analyses), and blood and urine safety data (FIGS. 2 and 3 show individual analyses). Paired,”
# [4] = ATEC Language, 7 days after treatment
# [5] = ATEC Language, 45 days after treatment
# [6] = ATEC Sociability, 7 days after treatment
# [7] = ATEC Total, 7 days after treatment
compound,measurement,setting,value
"Cc1ccc(C(=O)Nc2ccc(S(=O)(=O)O)c3cc(S(=O)(=O)O)cc(S(=O)(=O)O)c23)cc1NC(=O)c1cccc(NC(=O)Nc2cccc(C(=O)Nc3cc(C(=O)Nc4ccc(S(=O)(=O)O)c5cc(S(=O)(=O)O)cc(S(=O)(=O)O)c45)ccc3C)c2)c1 [Suramin, suramin]",mean ADOS comparison score,males with ASD [1]; 6-weeks after suramin (8.6±0.4 at baseline),7.0±0.3
same,ADOS-2 comparison scores improved by an average of (mean±SD),"males with ASD [1]; 6-weeks, suramin treatment group, n=5",−1.6±0.55 points
same,2-day ADOS scores,males with ASD [1]; 2 days after suramin (FIG. 10A),no change
same,Difference from baseline (mean ± sd),males with ASD [1]; ADOS-2 Comparison,−1.6 ± 0.55
same,d (Cohen's d),males with ASD [1]; ADOS-2 Comparison,2.9
same,Difference from baseline (mean ± sd),males with ASD [1]; ADOS-2 Raw,−4.6 ± 1.9
same,d (Cohen's d),males with ASD [1]; ADOS-2 Raw,2.4
same,Difference from baseline (mean ± sd),males with ASD [1]; ADOS-2 Restr/Rep (restricted or repetitive behaviors),−1.4 ± 0.89
same,d (Cohen's d),males with ASD [1]; ADOS-2 Restr/Rep,1.6
same,Difference from baseline (mean ± sd),males with ASD [1]; ADOS-2 Social,−3.2 ± 1.9
same,d (Cohen's d),males with ASD [1]; ADOS-2 Social,1.7
same,Difference from baseline (mean ± sd),males with ASD [2]; [4],−2.2 ± 1.5
same,d (Cohen's d),males with ASD [2]; [4],1.4
same,Difference from baseline (mean ± sd),males with ASD [2]; [5],−2.0 ± 1.4
same,d (Cohen's d),males with ASD [2]; [5],1.4
same,Difference from baseline (mean ± sd),males with ASD [2]; [6],−3.6 ± 2.6
same,d (Cohen's d),males with ASD [2]; [6],1.4
same,Difference from baseline (mean ± sd),males with ASD [2]; [7],−10 ± 7.7
same,d (Cohen's d),males with ASD [2]; [7],1.3
same,"Adverse or Unanticipated Events, Suramin (N = 5)",[3]; Asymptomatic rash,5
same,CTCAE Grade,[3]; Asymptomatic rash,1
same,"Adverse or Unanticipated Events, Suramin (N = 5)",[3]; Emesis x 1,1^4
same,CTCAE Grade,[3]; Emesis x 1,1
same,"Adverse or Unanticipated Events, Suramin (N = 5)",[3]; Enuresis,1^9
same,CTCAE Grade,[3]; Enuresis,1
same,"Adverse or Unanticipated Events, Suramin (N = 5)",[3]; Headache,1
same,CTCAE Grade,[3]; Headache,1
same,"Adverse or Unanticipated Events, Suramin (N = 5)",[3]; Hyperactivity,2^6
same,CTCAE Grade,[3]; Hyperactivity,1
same,"Adverse or Unanticipated Events, Suramin (N = 5)",[3]; Hypoglycemia,1
same,CTCAE Grade,[3]; Hypoglycemia,2
same,"Adverse or Unanticipated Events, Suramin (N = 5)",[3]; Leukocytosis,0
same,"Adverse or Unanticipated Events, Suramin (N = 5)",[3]; Peripheral neuropathy,0
same,"Adverse or Unanticipated Events, Suramin (N = 5)",[3]; Total,13
same,"Adverse or Unanticipated Events, Suramin (N = 5)","[3]; Total, excluding rash",8
same,"Adverse or Unanticipated Events, Suramin (N = 5)",[3]; Uncomplicated URI,2
same,CTCAE Grade,[3]; Uncomplicated URI,1
same,serious toxicities (CTCAE grades 3-5),"[3]; extensive monitoring, single 20 mg/kg IV",no serious toxicities
same,extent of morbilliform rash,[3]; five children who received suramin,1%-20%
same,time of rash peak after the infusion,[3]; in vivo,1 days
same,time to spontaneous disappearance of rash,[3]; in vivo,2 to 4 days
same,"free cortisol, hemoglobin, white blood cell count (WBC), platelets, liver transaminases, creatinine, and urine protein",[3]; suramin vs placebo (FIGS. 2 and 3),showed no differences
